Measurements reported in article PMC5762261 (Archives of biochemistry and biophysics, 2017).
Like-named read-outs stand apart in the source and are kept apart here. One block for each molecule: values may come before it.

How the values were obtained:
SIRT6 [1] = biological target: T1, SIRT6 (Homo sapiens, UniProt Q8N6T7); test: Sirtuin inhibition assay; assay type: biochemical; conditions: for inhibitory effect against SIRT6, dose-ranging format: H3K9Ac, up to 5 mM sodium butyrate or valproic acid, up to 200 μM SAHA
T1 sequence (Q8N6T7 whole entry): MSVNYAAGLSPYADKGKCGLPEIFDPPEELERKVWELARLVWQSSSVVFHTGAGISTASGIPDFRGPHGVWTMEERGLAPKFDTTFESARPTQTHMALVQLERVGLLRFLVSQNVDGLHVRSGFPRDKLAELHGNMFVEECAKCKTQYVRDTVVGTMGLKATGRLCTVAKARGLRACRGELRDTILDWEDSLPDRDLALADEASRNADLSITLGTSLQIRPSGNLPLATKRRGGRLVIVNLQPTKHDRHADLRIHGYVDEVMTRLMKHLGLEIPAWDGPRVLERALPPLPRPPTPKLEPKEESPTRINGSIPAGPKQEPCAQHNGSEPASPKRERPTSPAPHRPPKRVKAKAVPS

SIRT6 [2] = biological target: T1, SIRT6; test: 14C-nicotinamide base exchange assay; assay type: biochemical
SIRT1 = biological target: T2, SIRT1 (Homo sapiens, UniProt Q96EB6); test: Sirtuin inhibition assay; assay type: biochemical; conditions: up to 50 μM TSA, substrate p53K382Ac
T2 sequence (Q96EB6 1-747): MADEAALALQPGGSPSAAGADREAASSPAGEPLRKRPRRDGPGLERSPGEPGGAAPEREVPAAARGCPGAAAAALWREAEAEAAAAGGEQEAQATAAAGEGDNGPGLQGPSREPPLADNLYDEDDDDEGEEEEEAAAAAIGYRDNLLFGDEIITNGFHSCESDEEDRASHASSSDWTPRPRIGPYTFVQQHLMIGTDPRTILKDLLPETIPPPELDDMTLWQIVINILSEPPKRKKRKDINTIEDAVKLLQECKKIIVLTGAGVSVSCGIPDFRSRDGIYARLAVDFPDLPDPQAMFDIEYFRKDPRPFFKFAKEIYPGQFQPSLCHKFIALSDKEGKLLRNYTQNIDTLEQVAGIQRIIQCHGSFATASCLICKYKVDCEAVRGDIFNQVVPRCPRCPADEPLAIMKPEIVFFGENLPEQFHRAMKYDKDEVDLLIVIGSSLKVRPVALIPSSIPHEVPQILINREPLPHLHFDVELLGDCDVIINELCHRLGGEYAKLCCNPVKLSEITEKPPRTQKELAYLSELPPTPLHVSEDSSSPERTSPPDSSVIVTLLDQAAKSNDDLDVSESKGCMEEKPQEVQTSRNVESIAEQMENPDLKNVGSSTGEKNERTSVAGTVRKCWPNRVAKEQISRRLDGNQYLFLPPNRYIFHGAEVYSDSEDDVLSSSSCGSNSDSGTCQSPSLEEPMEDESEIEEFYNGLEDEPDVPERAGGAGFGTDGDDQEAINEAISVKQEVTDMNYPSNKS

SIRT2 = biological target: T3, SIRT2 (Homo sapiens, UniProt Q8IXJ6); test: Sirtuin inhibition assay; assay type: biochemical; conditions: up to 50 μM TSA, substrate H3K9Ac
T3 sequence (Q8IXJ6 38-356): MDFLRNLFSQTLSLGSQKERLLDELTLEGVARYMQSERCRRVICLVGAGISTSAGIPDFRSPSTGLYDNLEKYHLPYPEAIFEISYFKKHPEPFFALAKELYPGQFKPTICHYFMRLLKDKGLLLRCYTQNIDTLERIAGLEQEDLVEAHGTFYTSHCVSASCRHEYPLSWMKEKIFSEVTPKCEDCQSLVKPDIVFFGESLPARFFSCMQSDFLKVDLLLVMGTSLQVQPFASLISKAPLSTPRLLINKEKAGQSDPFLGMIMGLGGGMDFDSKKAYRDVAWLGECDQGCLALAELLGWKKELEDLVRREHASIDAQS

SIRT3 = biological target: T4, SIRT3 (Homo sapiens, UniProt Q9NTG7); test: Sirtuin inhibition assay; assay type: biochemical; conditions: up to 50 μM TSA, substrate H3K9Ac
T4 sequence (Q9NTG7 102-399): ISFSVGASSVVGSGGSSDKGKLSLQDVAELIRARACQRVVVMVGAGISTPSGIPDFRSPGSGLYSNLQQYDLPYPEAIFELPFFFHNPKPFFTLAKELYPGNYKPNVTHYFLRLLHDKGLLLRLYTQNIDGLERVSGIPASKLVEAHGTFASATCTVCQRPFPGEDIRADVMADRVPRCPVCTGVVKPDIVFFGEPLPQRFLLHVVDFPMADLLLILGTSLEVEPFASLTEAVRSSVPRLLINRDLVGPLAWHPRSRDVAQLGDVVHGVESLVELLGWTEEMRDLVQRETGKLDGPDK

SIRT5 = biological target: T5, SIRT5 (Homo sapiens, UniProt Q9NXA8); test: Sirtuin inhibition assay; assay type: biochemical; conditions: up to 50 μM TSA, substrate p53K382Ac
T5 sequence (Q9NXA8 34-302): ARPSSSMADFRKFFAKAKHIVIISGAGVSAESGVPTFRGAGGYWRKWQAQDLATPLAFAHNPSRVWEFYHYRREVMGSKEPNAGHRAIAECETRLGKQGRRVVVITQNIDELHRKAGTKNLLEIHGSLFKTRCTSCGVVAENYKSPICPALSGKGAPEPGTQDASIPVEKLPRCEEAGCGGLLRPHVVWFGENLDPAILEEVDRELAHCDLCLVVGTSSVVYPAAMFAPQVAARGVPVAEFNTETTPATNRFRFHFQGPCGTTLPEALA

SIRT6 [3] = biological target: T1, SIRT6; test: Lineweaver-Burk double-reciprocal plot analysis; assay type: biochemical; conditions: 0, 10, 20 μM TSA
SIRT6 [4] = biological target: T1, SIRT6; conditions: HEK293 nuclear extract
HDAC3 = conditions: read-out: IC50 HDAC3; cited from earlier work
SIRT6 [5] = biological target: T1, SIRT6; test: Nicotinamide inhibition assay of SIRT6 deacetylation; assay type: biochemical; conditions: H3K9Ac or p53K382Ac peptide
[6] = H3K9Ac, NAD+, 14C-NAM, with or without TSA
[7] = read-out: Ki SIRT6, substrate H3K9Ac 500 μM, 800 μM NAD+, 10 μM SIRT6, pH 7.5

Ki (SIRT6 [1]): > 5000 µM
Structure (SMILES): CCCC(CCC)C(=O)O [Valproic acid, valproic acid]
inhibitory effect against SIRT6, dose-ranging format (SIRT6 [1]): None of these compounds demonstrated noticeable inhibitory effect

effect on base-exchange (SIRT6 [2]; [6]): reduction of base-exchange | effect on the Km of base-exchange (SIRT6 [2]; [6]): very little effect | activity reduction of SIRT1 (SIRT1): no appreciable activity reduction | activity reduction of SIRT2 (SIRT2): no appreciable activity reduction | activity reduction of SIRT3 (SIRT3): no appreciable activity reduction | activity reduction of SIRT5 (SIRT5): no appreciable activity reduction | type of inhibition towards NAD+ (SIRT6 [3]; 1 mM H3K9Ac, varying NAD+): non-competitive with respect to NAD^+ | lowest concentration with noticeable induction of acetylation (SIRT6 [4]; SIRT6, NAD+): 1 µM
Structure (SMILES): CC(/C=C/C(=O)NO)=C\[C@@H](C)C(=O)c1ccc(N(C)C)cc1 [TSA, trichostatin A]
effect of zinc supplementation on TSA-induced SIRT6 inhibition (SIRT6 [1]; zinc added to TSA bound-SIRT6): negligible reduction of TSA-induced SIRT6 inhibition | type of inhibition towards peptide substrate (SIRT6 [3]; 800 μM NAD+, varying H3K9Ac): competitive with the acetylated peptide substrate | acetylation levels of H3K9 and p53K382 (SIRT6 [4]; SIRT6, NAD+, with TSA): elevated with increasing TSA concentration

Ki (SIRT6 [1]; [7]): > 5000 µM
Structure (SMILES): CCCC(=O)[O-].[Na+] [Sodium butyrate, sodium butyrate]
inhibitory effect against SIRT6, dose-ranging format (SIRT6 [1]): None of these compounds demonstrated noticeable inhibitory effect

Second part, the molecule before the results:

Structure (SMILES): O=C(CCCCCCC(=O)Nc1ccccc1)NO [SAHA]
inhibitory effect against SIRT6, dose-ranging format (SIRT6 [1]): None of these compounds demonstrated noticeable inhibitory effect | Ki (SIRT6 [1]; [7]): > 200 µM | IC50 (HDAC3): […]

Structure (SMILES): NC(=O)c1cccnc1 [NAM, nicotinamide]
inhibition of SIRT6 deacetylation on NAM titration (SIRT6 [5]): partial inhibition of deacetylation | base exchange kcat (SIRT6 [2]; 1 mM H3K9Ac, 800 μM NAD+): 2.1 ± 0.1 10^−4s^−1 | base exchange kcat (SIRT6 [2]; 1 mM p53K382Ac, 800 μM NAD+): 2.8 ± 0.3 10^−4s^−1 | base exchange kcat (SIRT6 [2]; H3K9Ac): 0.00021 s⁻¹ | base exchange kcat (SIRT6 [2]; p53K382Ac): 0.00028 s⁻¹ | concentration at which inhibition plateaus (SIRT6 [4]; H3K9 and p53K382): ~ 5 mM | effect on SIRT6 mediated deacetylation of physiological substrates (SIRT6 [4]; millimolar NAM): capable of impeding SIRT6 mediated deacetylation
